One data set concerns MV4-11 AML cells. Nature of the data set: MV4-11 AML xenograft implanted subcutaneously, combination with venetoclax. As to conditions: administered alone (Aza-T-dCyd 2 mpk), FIGS. 30 and 31. The format is in vivo, mice. As to the method: After establishing a xenograft systemic AML model in which MV4-11 AML cells were implanted subcutaneously in mice, Aza-T-dCyd alone at 2.0 mpk for 1 cycle (5 days on, 2 days off, 5 days on, 9 days off) was administered (PO) or Aza-T-dCyd 0.5, 1.0 or 2.0 mpk plus venetoclax 50 mpk or 100 mpk administered orally (PO) for 1 cycle (venetoclax on for 5 days, off for 2 days, repeated for 3 weeks). Anti-cancer efficacy was determined in disease models in which azacitidine 5.0 mpk was administered intraperitoneally (IP) alone or in combination with optimal dose of azacitidine (2.5 mpk) and venetoclax 50 mpk or 100 mpk as a control.

Data set [1] concerns the target T1, DNMT1 (Homo sapiens, UniProt P26358). Nature of the data set: DNMT1 protein Western blotting in cancer cell lines. In kind it is cell-based. Set-up: endogenous in cells; host or cells: MV4-11, KG-1a, CCRF-CEM, NCI-H23, HCT-116, IGROV-1 (also HL-60, THP-1). In general terms: Immunoblotting shows a protein as a band on a membrane.
Another data set deals with HCT-116 (colorectal). Nature of the data set: HCT-116 (colorectal) xenograft model. The format is in vivo, Mouse. As to conditions: colorectal (HCT-116) xenograft, Decitabine comparator, dose not given. How it is done: The efficacy of Aza-T-dCyd was confirmed by tumor growth curves after administration of Aza-T-dCyd in various solid cancer xenograft models. Aza-T-dCyd at a dose of 1~2 mg/kg was administered repeatedly for 2~6 cycles in QD×5, showing excellent anti-cancer effects (evidenced by test/control (T/C) value≤40%).

The next data set deals with BL0382PD PDX (bladder). In kind it is in vivo, Mouse. As to conditions: NSG, mouse, in vivo, 0.75 mg/kg, 2 cycles. The source says: The efficacy of Aza-T-dCyd was confirmed by tumor growth curves after administration of Aza-T-dCyd in various solid cancer xenograft models. […]
The test system of another data set is leukemia cell lines. Nature of the data set: Growth-inhibitory activity on leukemia cell lines (GI50). The format is cell-based. As to conditions: 72 h, read-out: GI50 values (half maximal growth inhibitory concentrations). How it is done:
The growth-inhibitory activity of Aza-T-dCyd, a DNMT1 inhibitor, was measured in leukemia cell lines to determine its inhibitory effect on cell proliferation.
The growth-inhibitory activity of DNMT1 inhibitors, Aza-T-dCyd and Decitabine, was measured on leukemia cell lines to determine their effect on cell proliferation.

The next data set deals with DNA methylation. Description: DNA demethylation. The format is cell-based. The source says: Through DNA demethylation caused by Aza-T-dCyd treatment, various tumor suppressor genes and genes required for differentiation induction of AML cells were reactivated, and the reactivated expression patterns of these genes were confirmed by RNA-seq data analysis (FIG. 24).
The next data set deals with HL-60 AML xenograft. Description: HL-60 AML xenograft model. The format is in vivo.
The next data set addresses DNMT3B (Homo sapiens, UniProt Q9UBC3). Nature of the data set: DNMT3B expression in HL-60 xenograft tumor samples. As to conditions: 2 mg/kg NTX-301 or 0.75 mg/kg Decitabine intraperitoneally, day 11. The format is in vivo, mice. Set-up: tumor samples were collected on day 11 to determine the expression of DNMT1, DNMT3A, and DNMT3B; from tissue; host or cells: HL-60 xenograft tumour samples (mouse host). As to the method: (§1) As the efficacy of DNMT1 inhibitors correlates with their selective profile for targeting DNMT1 and the de novo methyltransferases DNMT3A and DNMT3B, we confirmed the expression of DNMT1, DNMT3A, and DNMT3B in the Aza-T-dCyd and Decitabine treated groups in this xenograft model (FIG. 27).
(§2) In the HL-60 xenograft mice model, 2 mg/kg of NTX-301 (Aza-T-dCyd) or 0.75 mg/kg of Decitabine were administered intraperitoneally, and then tumor samples were collected on day 11 to determine the expression of DNMT1, DNMT3A, and DNMT3B. […] On the other hand, the expression levels of DNMT3A and DNMT3B were different in the Aza-T-dCyd and Decitabine treatment groups.

The target in data set [2] is T1, DNMT1. Nature of the data set: DNMT1 expression in HL-60 xenograft tumor samples. The format is in vivo, mice. On the set-up: tumor samples were collected on day 11 to determine the expression of DNMT1, DNMT3A, and DNMT3B; from tissue; host or cells: HL-60 xenograft tumour samples (mouse host). As to conditions: 2 mg/kg NTX-301 or 0.75 mg/kg Decitabine intraperitoneally, day 11. How it is done:
as §1, §2

For data set [3], the system named is p15 tumor suppressor gene. Description: p15 tumor suppressor gene re-expression (RT-PCR) in MV4-11 cells. As to conditions: MV4-11 cell line. In kind it is cell-based. How it is done: Therefore, to determine the re-expression of tumor suppressor genes through epigenetic regulation mechanisms induced by DNMT1 inhibition upon Aza-T-dCyd (NTX-301) treatment, MV4-11 cells, an AML cell line, were treated with Aza-T-dCyd at different concentrations. […] Table 1 below compares the degree of p15 mRNA re-expression after DNMT1 inhibitor (Aza-T-dCyd/Decitabine) treatment in the MV4-11 cell line, an AML cell (fold increase from 0 nM is shown).

Data set [4] concerns systemic MV4-11 engraftment model. As to the method: After establishing a systemic MV4-11 engraftment model that more accurately depicts the disease in humans, Aza-T-dCyd was administered orally at doses ranging from 0.4 to 1.5 mg/kg.
After establishment of the systemic MV4-11 engraftment model, Aza-T-dCyd was administered orally at doses of 1.5, 2.0, and 2.5 mg/kg (using the standard dose/dosing schedule used in preclinical trials for decitabine/azacytidine).
After establishing a systemic MV4-11 engraftment model, blood was collected at pre-treatment (Day 21) and mid-treatment (Day 36, 56, 77) in the Aza-T-dCyd and Decitabine/Azacytidine groups and analyzed for complete blood count (CBC) values.
To determine whether the anti-cancer efficacy in the systemic MV4-11 engraftment model was directly related to the ability to suppress the number of cancer cells, we performed experiments to measure body luminescence after systemic engraftment using the luciferase-transfected Mv4-11 cell line.

The next data set relates to cytidine deaminase. Nature of the data set: Degradation by cytidine deaminase. As to conditions: compared to Decitabine/Azacytidine, oral administration. The source says: Decitabine/Azacytidine is susceptible to metabolism by cytidine deaminases in the body, resulting in an unstable PK profile that limits its efficacy.

This note sets out measurements from patent US12708630B2, “Combined therapy of 4′-thio-5-aza-2′-deoxycytidine and Venetoclax” (PINOTBIO, INC., priority 2021, dated 2026).

Read-outs that look alike come from different tables or passages of the source.

T1 sequence (P26358 whole entry): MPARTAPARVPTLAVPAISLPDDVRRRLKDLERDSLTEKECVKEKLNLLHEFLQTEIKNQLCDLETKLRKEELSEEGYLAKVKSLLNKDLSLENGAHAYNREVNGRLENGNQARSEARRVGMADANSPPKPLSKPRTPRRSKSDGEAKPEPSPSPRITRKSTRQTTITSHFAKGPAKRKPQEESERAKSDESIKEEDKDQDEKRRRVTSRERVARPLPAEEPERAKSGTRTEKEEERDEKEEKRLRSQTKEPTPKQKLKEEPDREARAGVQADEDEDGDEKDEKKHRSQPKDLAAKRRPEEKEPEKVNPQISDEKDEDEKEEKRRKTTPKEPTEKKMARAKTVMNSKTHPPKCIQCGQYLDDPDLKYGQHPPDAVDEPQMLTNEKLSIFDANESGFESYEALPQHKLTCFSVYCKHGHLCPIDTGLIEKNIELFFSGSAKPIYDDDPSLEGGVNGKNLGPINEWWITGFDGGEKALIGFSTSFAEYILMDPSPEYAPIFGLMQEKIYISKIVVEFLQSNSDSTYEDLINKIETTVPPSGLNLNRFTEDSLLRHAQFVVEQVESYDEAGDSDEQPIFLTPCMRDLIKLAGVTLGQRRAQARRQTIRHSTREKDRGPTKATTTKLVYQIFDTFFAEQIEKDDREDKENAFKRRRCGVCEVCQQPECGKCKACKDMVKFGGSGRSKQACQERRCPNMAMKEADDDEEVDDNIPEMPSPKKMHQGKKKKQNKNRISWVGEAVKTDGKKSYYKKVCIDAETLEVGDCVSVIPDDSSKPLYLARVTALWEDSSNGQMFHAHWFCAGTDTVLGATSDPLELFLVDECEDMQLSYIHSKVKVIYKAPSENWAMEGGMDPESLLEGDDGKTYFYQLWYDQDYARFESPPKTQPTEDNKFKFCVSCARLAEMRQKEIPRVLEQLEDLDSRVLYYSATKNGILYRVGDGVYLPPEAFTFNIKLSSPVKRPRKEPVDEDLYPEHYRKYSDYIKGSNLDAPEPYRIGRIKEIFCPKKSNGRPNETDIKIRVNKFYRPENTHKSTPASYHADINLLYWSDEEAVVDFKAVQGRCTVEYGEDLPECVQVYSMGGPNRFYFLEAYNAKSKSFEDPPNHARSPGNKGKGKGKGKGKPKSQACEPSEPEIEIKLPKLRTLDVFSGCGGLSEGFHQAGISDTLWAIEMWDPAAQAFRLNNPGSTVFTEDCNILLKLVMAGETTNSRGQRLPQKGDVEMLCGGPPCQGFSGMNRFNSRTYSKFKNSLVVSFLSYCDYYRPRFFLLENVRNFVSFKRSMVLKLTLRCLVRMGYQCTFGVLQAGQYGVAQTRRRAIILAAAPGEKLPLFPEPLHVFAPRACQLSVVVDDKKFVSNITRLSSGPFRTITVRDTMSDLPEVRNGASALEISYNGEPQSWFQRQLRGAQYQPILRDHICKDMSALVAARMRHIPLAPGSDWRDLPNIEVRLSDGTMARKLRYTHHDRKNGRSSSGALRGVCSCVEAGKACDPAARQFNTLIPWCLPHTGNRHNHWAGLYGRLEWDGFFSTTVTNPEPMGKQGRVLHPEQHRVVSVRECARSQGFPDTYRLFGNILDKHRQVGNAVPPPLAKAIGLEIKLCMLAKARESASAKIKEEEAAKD

For the molecule `CC1(C)CCC(CN2CCN(c3ccc(C(=O)NS(=O)(=O)c4ccc(NCC5CCOCC5)c([N+](=O)[O-])c4)c(Oc4cnc5[nH]ccc5c4)c3)CC2)=C(c2ccc(Cl)cc2)C1` [Venetoclax], the “anti-cancer effect (tumor volume), single agent” value with MV4-11 AML cells is “limited tumor regression”.
The T/C is the ratio of treated to control. With `Nc1ncn([C@H]2C[C@H](O)[C@@H](CO)O2)c(=O)n1` [Decitabine, 5-aza-2′-deoxycytidine], the DNMT1 inhibition entry on DNMT1 [1] (MV4-11 (AML cell line) cells, different concentrations, FIG. 10) is “inhibits DNMT1”. This molecule also displayed a T/C with HCT-116 (colorectal) of 45%. The toxicity entry with BL0382PD PDX (bladder) was “showed toxicity after 2 cycles”. In the data set on leukemia cell lines, the GI50 was in the range of 0.024 to 4.3 µM. For the same molecule, in the data set on DNA methylation, the “pattern of DNA demethylation” value is listed as “genome-wide demethylation”. Moreover, in the data set on HL-60 AML xenograft (above 0.75 mg/kg), the “tolerability above the maximum dose” value is “animals died above this dose”. Moreover, the tumor suppression result in the data set on HL-60 AML xenograft (maximum dose 0.75 mg/kg) is reported as “no tumor suppression”. For the same molecule, the “DNMT3B expression level in tumor samples” value at DNMT3B is recorded as “no effect was observed”. Further, the “DNMT1 expression in tumor samples” value on DNMT1 [2] is listed as “significantly reduced”. Moreover, the “p15 mRNA re-expression” value in [3] (6 nM) was determined as 1.3 ± 0.27 fold increase from 0 nM; in data set [3] (20 nM) it was 1.7 ± 0.85 fold increase from 0 nM; in data set [3] (60 nM), 2.2 ± 0.52 fold increase from 0 nM; in [3] (200 nM), 4.3 ± 0.83 fold increase from 0 nM. Besides, the “anti-AML activity and survival” value in data set [4] (Aza-T-dCyd oral 1.5, 2.0 and 2.5 mg/kg, decitabine/azacytidine at standard preclinical dose/schedule) is “no therapeutic effect”. The “complete blood count (WBC, RBC, Neutrophil, Platelet)” value in [4] (blood at Day 21, 36, 56, 77) was “all individuals died before blood samples were collected”.
In the case of `Nc1ncn([C@@H]2O[C@H](CO)[C@@H](O)[C@H]2O)c(=O)n1` [Azacytidine, reference compound], the “complete blood count (WBC, RBC, Neutrophil, Platelet)” value in data set [4] (mouse, in vivo) is listed as “severe neutropenia”.
For `Nc1ncn(C2CC(O)C(COP(=O)(O)OP(=O)(O)OP(=O)(O)O)S2)c(=O)n1` (stereo not drawn) [aza-T-dCTP], the “rate of degradation by cytidine deaminase” value in the data set with cytidine deaminase is reported as “slower rate of degradation by cytidine deaminase”.
On to `Nc1ccn([C@H]2C[C@H](O)[C@@H](CO)S2)c(=O)n1` [T-dCyd, reference compound], for which the DNMT1 inhibition entry is recorded as “inhibits DNMT1” on DNMT1 [1] (CCRF-CEM (ALL cell line) cells, FIG. 12); “inhibits DNMT1” at DNMT1 [1] (KG-1a (AML cell line) cells, FIG. 11); “inhibits DNMT1” at DNMT1 [1] (NCI-H23, HCT-116 and IGROV-1 cell lines, FIG. 13).
